Measurements: patent publication US6498252B1, “Pyrimidine-2,4,6-trione derivatives, processes for their production and pharmaceutical agents containing these compounds” (priority 1999, dated 2002)

The compounds below were run against T1, MMP-8, catalytic domain (Homo sapiens, UniProt P22894) (assay: Inhibition of MMP-8 (HNC) catalytic domain, fluorogenic substrate cleavage). Settings: not given.
T1 construct: Enzyme: 8 nM catalytic domain (Met80-Gly242) of human neutrophil collagenase (MMP-8); made in house
Assay type: biochemical
Experimental: In order to determine the inhibition of MMPs, for example HNC (MMP-8), the catalytic domain (isolation and purification see for example Schnierer, S., Kleine, T., Gote, T., Hillemann, A., Knäuper, V., Tschesche, H.,Biochem. Biophys. Res. Commun. (1993) 191, 319-326) were incubated with inhibitors having various concentrations. Subsequently, the initial reaction rate in the conversion of a standard substrate was measured in a manner analogous to Grams F. et al., FEBS 335 (1993) 76-80).
The results awee evaluated by plotting the reciprocal reaction rate against the concentration of the inhibitor. The inhibition constant (Ki) is obtained as the negative section of the abscissis by the graphical method according to Dixon, M., Biochem. J. (1953) 55, 170-202.
The synthetic collagenase substrate was a heptapeptide which is coupled, at the C terminus, with DNP (dinitrophenol). Said DNP residue quenched by steric hindrance the fluorescence of the adjacent tryptophane of the heptapeptide. After cleavage of a tripeptide which includes the DNP group, the tryptophane fluorescence increased. The proteolytic cleavage of the substrate therefore was measured by the fluorescence value.
The assay was performed at 25° C. in a freshly prepared 50 mM Tris buffer (pH 8.0) treated with dithiozone to remove traces of heavy metals. 4 mM CaCl2 was added and the buffer saturated with argon. Stock solutions of adamalysin II were prepared by centrifugation of the protein from an ammonium sulfate suspension and subsequent dissolution in the assay buffer. Stock solutions of collagenase were diluted with the assay buffer. Enzyme concentrations were determined by uv measurements (ε280=2.8 10^4 M^−1 cm^−1, ε288: 2.2 10^4 M^−. cm^−1) and the stock solutions were stored in the cold. This solution was diluted 1:100 to obtain the final 16 nM assay concentration. The fluorogenic substrate DNP-Pro-Leu-Gly-Leu-Trp-Ala-D-Arg-NH2 with a Km of 52 μM was used at a concentration of 21.4 μM; for the Ki determination a 12.8 μM concentration has also been used. Substrate fluorescence was measured at an excitation and emission wavelength of λ=320 and 420 nm, respectively, on a spectrofluorimeter (Perkin Elmer, Model 650-40) equipped with a thermostated cell holder. Substrate hydrolysis was monitored for 10 minutes. immediately after adding the enzyme. All reactions were performed at least in triplicate. The Ki values-of the inhibitors were calculated from the intersection point of the straight lines obtained by the plots of vo/vi vs. [concentration of inhibitor], whereas IC50 values were calculated from plots of vi/vo [concentration of inhibitor] by non-linear regression with simple robust weighting.
50 mM Tris/HCI pH 7.6 (Tris=Tris-(hydroxymethyl)-aminomethan)
100 mM NaCl/10 mM CaCl2/5% MeOH (ff necessary)
Enzyme: 8 nM catalytic domain (Met80-Gly242) of human neutrophil collagenase (MMP-8)
10 microM DNP-Pro-Leu-Gly-Leu-Trp-Ala-D-Arg-NH2
A solution of the enzyme and inhibitor in assay buffer (25° C.) was prepared. The reaction was started by giving the substrate into the solution. The cleavage of the fluorogenic substrate was followed by fluorescence spectroscopy with an excitation and emission wavelength of 280 and 350 nm, respectively. The IC50 value was calculated as the inhibitor concentration, which is necessary to decrease the velocity of the reaction to the half in comparison to the reaction without inhibitor.
118 cited in the patent application EP0869947

T1 sequence (P22894 100-262 limits assumed): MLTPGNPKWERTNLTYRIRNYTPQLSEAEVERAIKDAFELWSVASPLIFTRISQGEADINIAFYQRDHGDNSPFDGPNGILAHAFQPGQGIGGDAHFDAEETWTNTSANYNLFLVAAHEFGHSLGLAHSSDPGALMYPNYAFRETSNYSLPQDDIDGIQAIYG

| Structure (SMILES) | IC50 |
| --- | --- |
| NS(=O)(=O)c1ccc(N2CCN(C3(c4ccc(Oc5ccc(Cl)cc5)cc4)C(=O)NC(=O)NC3=O)CC2)cc1 [Example 5 - no. 9, 4-(4-5-[4-(4-Chloro-phenoxy)-phenyl]-2,4,6-trioxo-hexahydro-pyrimidin-5-yl-piperazin-1-yl)-benzenesulfonamide] | 12 nM |
| O=C1NC(=O)C(c2ccc(Oc3ccc(Cl)cc3)cc2)(N2CCN(c3ccc(S(=O)(=O)N(CCO)CCO)cc3)CC2)C(=O)N1 [Example 5 - no. 10, 4-(4-5[-4-(4-Chloro-phenoxy)-phenyl]-2,4,6-trioxo-hexahydro-pyrimidin-5-yl-piperazin-1-yl)-N,N-bis-(2-hydroxy-ethyl)-benzenesulfonamide] | 9 nM |
| O=C1NC(=O)C(c2ccc(Oc3ccccc3)cc2)(N2CCN(c3ccc(S(=O)(=O)NCC(O)CO)cc3)CC2)C(=O)N1 (stereo not shown) [Example 5 - no. 11, N-(2,3-Dihydroxy-propyl)-4-4-[2,4,6-trioxo-5-(4-phenoxy-phenyl)-hexahydro-pyrimidin-5-yl]-piperazin-1-yl-benzenesulfonamide] | 4.5 nM |
| O=C1NC(=O)C(c2ccc(Oc3ccccc3)cc2)(N2CCN(c3ccc(S(=O)(=O)NC(CO)CO)cc3)CC2)C(=O)N1 [Example 5 - no. 12, N-(2-Hydroxy-1-hydroxymethyl-ethyl)-4-4-[2,4,6-trioxo-5-(4-phenoxy-phenyl)-hexahydro-pyrimidin-5-yl]-piperazin-1-yl-benzenesulfonamide] | 5.5 nM |
| O=C1NC(=O)C(c2ccc(Oc3ccccc3)cc2)(N2CCN(c3ccc(S(=O)(=O)NCCOCCOCCO)cc3)CC2)C(=O)N1 [Example 5 - no. 13, N-2-[2-(2-Hydroxy-ethoxy)-ethoxy]-ethyl-4-4-[2,4,6-trioxo-5-(4-phenoxy-phenyl)-hexahydro-pyrimidin-5-yl]-piperazin-1-yl-benzenesulfonamide] | 6 nM |
| O=C1NC(=O)C(c2ccc(Oc3ccc(Cl)cc3)cc2)(N2CCN(c3ccc(S(=O)(=O)NC(CO)(CO)CO)cc3)CC2)C(=O)N1 [Example 5 - no. 19, 4-(4-5-[4-(4-Chloro-phenoxy)-phenyl]-2,4,6-trioxo-hexahydro-pyrimidin-5-yl-piperazin-1-yl)-N-(2-hydroxy-1,1-bis-hydroxymethyl-ethyl)-benzenesulfonamide] | 9 nM |
| O=C1NC(=O)C(c2ccc(Oc3ccccc3)cc2)(N2CCN(c3ccc(S(=O)(=O)NCC4COC(=O)O4)cc3)CC2)C(=O)N1 (stereo not shown) [Example 6, N-(2-Oxo-[1,3]dioxolan-4-ylmethyl)-4-4-[2,4,6-trioxo-5-(4-phenoxy-phenyl)-hexahydro-pyrimidin-5-yl]-piperazin-1-yl-benzenesulfonamide] | 9 nM |

Same assay, conditions: catalytic domain of human neutrophil collagenase (MMP-8); substrate DNP-Pro-Leu-Gly-Leu-Trp-Ala-D-Arg-NH2; 25° C.; read-out: IC50 Values of MMP-Inhibitor (vs. MMP-8, catalytic domain)

| Structure (SMILES) | IC50 |
| --- | --- |
| O=C1NC(=O)C(c2ccc(Oc3ccc(Cl)cc3)cc2)(N2CCN(c3ncccn3)CC2)C(=O)N1 [Example 1, 5-(4-(4-Chloro-phenoxy)-phenyl)-5-(4-pyrimidine-2-yl-piperazine)-pyrimidine-2,4,6-trione] | 10 nM |
| O=C1NC(=O)C(c2ccc(Oc3ccc(Cl)cc3)cc2)(N2CCN(c3cnccn3)CC2)C(=O)N1 [Example 2] | 4 nM |
| O=C1NC(=O)C(c2ccc(Oc3ccc(Cl)c(Cl)c3)cc2)(N2CCN(c3ncccn3)CC2)C(=O)N1 [Example 3 - no. 1, 5-[4-(3,4-Dichloro-phenoxy)-phenyl]-5-(4-pyrimidin-2-yl-piperazin-1-yl)-pyrimidine-2,4,6-trione] | 4 nM |
| O=C1NC(=O)C(c2ccc(Oc3ccc(Cl)c(Cl)c3)cc2)(N2CCN(c3cnccn3)CC2)C(=O)N1 [Example 3 - no. 2, 5-[4-(3,4-Dichloro-phenoxy)-phenyl]-5-(2,3,5,6-tetrahydro-[1,2′]bipyrazinyl-4-yl)-pyrimidine-2,4,6-trione] | 2 nM |
| O=C1NC(=O)C(c2ccc(Oc3ccc(Br)cc3)cc2)(N2CCN(c3ncccn3)CC2)C(=O)N1 [Example 3 - no. 15, 5-[4-(4-Bromo-phenoxy)-phenyl]-5-(4-pyrimidin-2-yl-piperazin-1-yl)-pyrimidine-2,4,6-trione] | 4 nM |
| O=C1NC(=O)C(c2ccc(Oc3ccc(Cl)cc3)cc2)(N2CCN(c3ccc(S(=O)(=O)NCCO)cc3)CC2)C(=O)N1 [Example 4, 4-(4-5-[4-(4-Chloro-phenoxy)-phenyl]-2,4,6-trioxo-hexahydro-pyrimidin-5-yl-piperazin-1-yl)-N-(2-hydroxy-ethyl)-benzenesulfonamide] | 10 nM |
| NS(=O)(=O)c1ccc(N2CCN(C3(c4ccc(Oc5ccc(Br)cc5)cc4)C(=O)NC(=O)NC3=O)CC2)cc1 [Example 5 - no. 6, 4-(4-5-[4-(4-Bromo-phenoxy)-phenyl]-2,4,6-trioxo-hexahydro-pyrimidin-5-yl-piperazin-1-yl)-benzenesulfonamide] | 2.8 nM |
| CN(C)CCNS(=O)(=O)c1ccc(N2CCN(C3(c4ccc(Oc5ccc(Br)cc5)cc4)C(=O)NC(=O)NC3=O)CC2)cc1 [Example 5 - no. 7, 4-(4-5-[4-(4-Bromo-phenoxy)-phenyl]-2,4,6-trioxo-hexahydro-pyrimidin-5-yl-piperazin-1-yl)-N-(2-dimethylamino-ethyl)-benzenesulfonamide] | 13 nM |
| O=C1NC(=O)C(c2ccc(Oc3ccccc3)cc2)(N2CCN(c3ccc(S(=O)(=O)NC(CO)(CO)CO)cc3)CC2)C(=O)N1 [Example 5 - no. 18, N-(2-Hydroxy-1,1-bis-hydroxymethyl-ethyl)-4,4-[2,4,6-trioxo-5-(4-phenoxy-phenyl)-hexahydro-pyrimidin-5-yl]-piperazin-1-yl-benzenesulfonamide] | 13 nM |
